Measured values: patent US20130189248A1, “EGFR INHIBITOR AND ANTIVIRAL AGENT FOR SIMULTANEOUS, SEPARATE OR SEQUENTIAL USE IN THE TREATMENT AND/OR PREVENTION AND/OR PALLIATION OF CANCER” (priority 2010, published 2013)
Where two headings read alike, the source gives them in different places.

Experiments:
viral DNA polymerase = details: cited from earlier work
[1] = cidofovir 3 mg/kg, AIDS patients with CMV retinitis, after 1 hour of infusion; cited from earlier work
[2] = system: C33A cells (human HPV-negative cervical carcinoma cells); assay type: cell-based
Protocol: (§1) The cell lines are available from the American Type Culture Collection (ATCC): • HeLa cells (human HPV-positive cervical carcinoma cells): ATCC n° CCL-2; • Me180 cells (human HPV-positive cervical carcinoma cells): ATCC n° HTB-33; • C33A cells (human HPV-negative cervical carcinoma cells): ATCC n° HTB-31. • H460 cells (human HPV-negative lung carcinoma cells): ATCC n° HTB-177.
(§2) The cell lines were grown in humid incubators at 37° C. under 5% CO2.
(§3) Each of said treatments last the 10-15 days of the clonogenic assay.
(§4) The culture medium has not been replaced during the assay.
(§5) The cultures were stopped by fixing and staining with crystal violet (methanol 80%, formaldehyde 10%, crystal violet 1.25 g), when the clones reached 50 cells. The clones were then counted and related to the number of cells cultured to obtain the fraction of surviving cells.
(§6) The Bliss additivity model was used to classify the effect of the drug combination as synergistic, additive or antagonist.
(§7) A theoretical curve of the expected effect of the combination was calculated from the equation:
(§8) Bliss effect=effect A+effect B−effect A×effect B,
(§9) where effect A and effect B are the effects of drugs A and B alone at specific concentrations.
(§10) Here, the Bliss effect is the expected effect when the combination of the two drugs is exactly additive. If the observed effect (the experimentally measured effect of the combination) is lower than the Bliss effect, the effect of the combination is said to be antagonist (delta=observed effect−Bliss effect is a negative value). If the observed effect is greater than the Bliss effect, the effect of the combination is synergistic (delta is positive).
(§11) The data are expressed as a percentage decrease in cell viability beyond that which would be expected if the association were strictly additive.

[3] = system: Me180 cells (human HPV-positive cervical carcinoma cells); assay: Clonogenicity test on Me180 cells (with Bliss additivity model); assay type: cell-based
Protocol: as §1
Me180 cells were grown in the GIBCO® McCoy's 5A medium (available from Invitrogen under catalog reference number 26600023), supplemented with 10% FCS, 1% penicillin/streptomycin and 1% glutamine.
as §2, §3, §4, §5, §6, §7, §8, §9, §10, §11

Me180 xenograft = Me180 xenograft in mice; assay type: in vivo; details: cidofovir, cetuximab alone or combined
[4] = system: HeLa cells (human HPV-positive cervical carcinoma cells); assay: Clonogenicity test on HeLa cells (with Bliss additivity model); assay type: cell-based
Protocol: as §1
The HeLa cells contained 10-50 copies of integrated HPV18.
as §2, §3, §4, §5, §6, §7, §8, §9, §10, §11

HeLa xenograft = HeLa xenograft in female nude mice; assay type: in vivo; details: cidofovir i.p. days 1-5, cetuximab i.p. 1 mg/mouse days 1, 4, 7, alone or combined
Protocol: Unless otherwise indicated, materials and methods are those described in example 1 above. The in vivo experiments were carried out at the Institut Gustave Roussy (94805 Villejuif; France), with the approval of the French Ministry of Agriculture.
10- to 12-week old female nude mice were injected subcutaneously (into the flank) with 2×10^6 live HeLa cells suspended in 100 μL of culture medium without Fetal Calf Serum (FCS) to study tumor growth. […] Tumor volume and weight were monitored twice a week. The mice were sacrificed when the tumor reached ten times the initial volume.

[5] = system: H460 cells (human HPV-negative lung carcinoma cells); assay: Clonogenicity test on H460 cells; assay type: cell-based; details: H460 (printed H480); cidofovir alone (10 μg/mL, FIG. 4A)
Protocol: as §1, §2, §3, §4, §5

herpesvirus polymerases = details: cited from earlier work
[6] = human, in vivo; cited from earlier work
[7] = erlotinib alone 0.1 μM/mL, listed as Erlotinib
[8] = foscarnet sodium alone 200 μM/mL, listed as Foscarnet
[9] = foscarnet sodium alone 200 μM/mL, listed as Foscarnet sodium

Molecule: Nc1nc2c(ncn2COCCOP(=O)(O)OP(=O)(O)OP(=O)(O)O)c(=O)[nH]1 [Acyclo-GTP, acyclo-guanosine triphosphate]
- times greater affinity for viral than cellular polymerase (viral DNA polymerase): approximately 100 times

Molecule: Nc1ccn(C[C@@H](CO)OCP(=O)(O)O)c(=O)n1 [cidofovir, 1-[(S)-3-hydroxy-2-(phophonomethoxy)propyl]cytosine dehydrate]
- plasmatic concentration [1]: 7.6 ± 1.4 µg/mL
- reduction in cell survival compared to the control ([2]; cidofovir alone 1 μg/mL): about 20%
- reduction in cell survival / clonogenicity compared to the control / Decrease in living cells (%) ([2]; cidofovir alone 5 μg/mL): minus 20%
- concentration at which the drug alone had an effect on the cells ([3]; cidofovir alone): at least 1 μg/mL
- reduction in cell survival (clonogenicity) compared to the control ([3]; cidofovir alone 1 μg/mL): about 30%
- reduction in clonogenicity compared to the control / Decrease in living cells (%) ([3]; cidofovir alone 5 μg/mL): 40%
- tumor growth compared to the control group (Me180 xenograft): does not reduce tumor growth
- concentration at which the drug alone had an effect on clonogenicity ([4]; cidofovir alone): at least 5 μg/mL
- reduction in clonogenicity compared to the control / Decrease in living cells (%) ([4]; cidofovir alone 5 μg/mL): 15%
- reduction in clonogenicity compared to the control ([4]; cidofovir alone 10 μg/mL): 25%
- clonogenic survival ([4]; cidofovir alone at 1 μg/mL): about 100%
- tumor growth (tumor volume) compared to the control group (HeLa xenograft): does not reduce tumor growth
- effect on cell survival [5]: no significant effect

Molecule: C#Cc1cccc(Nc2ncnc3cc(OCCOC)c(OCCOC)cc23)c1 [erlotinib, N-(3-ethynylphenyl)-6,7-bis(2-methoxyethoxy)-4-quinazolinamine]
- reduction in clonogenicity compared to the control / Decrease in living cells (%) ([2]; erlotinib alone 0.1 μM/mL): minus 10%
- reduction in clonogenicity compared to the control / Decrease in living cells (%) [2, 7]: 10%
- reduction in clonogenicity compared to the control / Decrease in living cells (%) ([3]; erlotinib alone 0.1 μM/mL): minus 50%
- reduction in clonogenicity compared to the control / Decrease in living cells (%) [3, 7]: 50%
- reduction in clonogenicity compared to the control / Decrease in living cells (%) ([3]; erlotinib alone 0.5 μM/mL): minus 80%
- reduction in clonogenicity compared to the control / Decrease in living cells (%) ([3]; erlotinib alone 0.5 μM/mL, listed as Erlotinib): 80%
- reduction in clonogenicity compared to the control / Decrease in living cells (%) ([4]; erlotinib alone 0.1 μM/mL): minus 50%
- reduction in clonogenicity compared to the control / Decrease in living cells (%) [4, 7]: 50%

Molecule: O=C(O)P(=O)(O)O [foscarnet, phosphonoformic acid]
- reduction in clonogenicity compared to the control / Decrease in living cells (%) [2, 8]: minus 20%
- reduction in clonogenicity compared to the control / Decrease in living cells (%) [2, 9]: 20%
- reduction in clonogenicity compared to the control / Decrease in living cells (%) [3, 8]: minus 35%
- reduction in clonogenicity compared to the control / Decrease in living cells (%) [3, 9]: 35%
- reduction in clonogenicity compared to the control / Decrease in living cells (%) [4, 8]: minus 20%
- reduction in clonogenicity compared to the control / Decrease in living cells (%) [4, 9]: 20%

Molecule: Cidofovir diphosphate
- fold lower concentration needed to inhibit herpesvirus polymerases than human cellular DNA polymerases (herpesvirus polymerases): 8- to 600 fold

Molecule: Vectibix®: recombinant, fully human IgG2 kappa monoclonal antibody that binds specifically to the human EGFR
- incidence of NCI-CTC grade 3-5 adverse reactions [6]: 87%
- patients with dermatologic toxicities [6]: 89%
- patients with severe dermatologic toxicities (NCI-CTC grade 3 and higher) [6]: 12%
